The record followed here is patent US11680060B2, “Bicycloheptane pyrrolidine orexin receptor agonists” (Merck Sharp & Dohme LLC, priority 2020, dated 2023).

This test deals with human OX2R (Homo sapiens (Human), UniProt O43614). The test is described as follows: IPOne (IP-1) assay in CHO cells expressing human OX2R. The format is cell-based. Particulars: for Emax: CHO, read-out: Emax (%); for Emax / Emax (%): percentage of mean max effect of a reference compound at 1 uM (100% activity by comparison to Orexin A), human OX2R; for IC50: CHO cells expressing human OX2R, IP-One detection, 2 hours incubation, EC50 = inflection point of four parameter logistic fit, read-out: hOX2R_IP_IC50. The method, boiled down: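 CHO cells stably expressing human OX2R were stimulated with compound (10-point ½-log dilutions) for 2 h at 37 °C. IP-1 accumulation was read by HTRF (IP-One, 665/620 nm). EC50 from a four-parameter fit; % effect relative to 1 μM reference agonist control.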
Chain of human OX2R (O43614 whole entry): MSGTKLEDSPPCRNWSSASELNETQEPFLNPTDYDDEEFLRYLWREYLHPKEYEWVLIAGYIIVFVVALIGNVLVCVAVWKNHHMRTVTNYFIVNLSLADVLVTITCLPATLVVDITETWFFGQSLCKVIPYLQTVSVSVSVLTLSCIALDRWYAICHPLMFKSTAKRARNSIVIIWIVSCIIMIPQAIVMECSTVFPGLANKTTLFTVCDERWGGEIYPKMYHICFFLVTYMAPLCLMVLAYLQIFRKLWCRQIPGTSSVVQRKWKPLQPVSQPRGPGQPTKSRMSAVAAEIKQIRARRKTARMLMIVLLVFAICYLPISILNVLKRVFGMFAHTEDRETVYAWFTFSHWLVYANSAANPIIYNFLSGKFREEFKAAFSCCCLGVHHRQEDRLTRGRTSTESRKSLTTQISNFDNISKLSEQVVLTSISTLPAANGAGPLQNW

As a reminder, the Emax is the greatest response seen or fitted, relative to the assay's reference.

Take `COC(=O)N1[C@H](C)C[C@H](NS(=O)(=O)C(F)F)[C@@H]1CO[C@H]1CC[C@@]2(c3ncccn3)C[C@H]2C1` [Example 68, methyl (2R,3S,5R)-3-((difluoromethyl)sulfonamido)-5-methyl-2-((((1S,3S,6R)-6-(pyrimidin-2-yl)bicyclo[4.1.0]heptan-3-yl)oxy)methyl)pyrrolidine-1-carboxylate]: the Emax is 99.7%.
Regarding `COC(=O)N1[C@H](C)C[C@H](NS(C)(=O)=O)[C@@H]1COC1CCC2(c3ccccc3)CC2C1` (single isomer, unassigned) [Example 1], the IC50 is 20.6 nM and the Emax turned out to be 99.6%.
The like results for `COC(=O)N1[C@H](C(F)F)C[C@H](NS(=O)(=O)CF)[C@@H]1CO[C@H]1CC[C@@]2(c3ncc(F)cn3)C[C@H]2C1` (single isomer, unassigned) [Example 113] were, in that order, 0.6 nM and 103%.
The like results for `CC(C)OC(=O)N1[C@H](C)C[C@H](NS(C)(=O)=O)[C@@H]1CO[C@H]1CC[C@@]2(c3ncc(Cl)cn3)C[C@H]2C1` (single isomer, unassigned) [Example 151] were, in that order, 4.4 nM and 101%.
`CCS(=O)(=O)N[C@H]1CCCN(C(=O)OC(C)C)[C@H]1COC1CC[C@@]2(c3ncc(F)cn3)CC2C1` (stereo partly drawn) [Example 126, isopropyl (2R,3S)-3-(ethylsulfonamido)-2-(((6-(5-fluoropyrimidin-2-yl)bicyclo[4.1.0]heptan-3-yl)oxy)methyl)piperidine-1-carboxylate]: the Emax is 104%.
On to `COC(=O)N1[C@H](C)C[C@H](NS(=O)(=O)C(C)C)[C@@H]1CO[C@H]1CC[C@@]2(c3ncc(F)cn3)C[C@H]2C1` [Example 38, methyl (2R,3S,5R)-2-((((1S,3S,6R)-6-(5-fluoropyrimidin-2-yl)bicyclo[4.1.0]heptan-3-yl)oxy)methyl)-5-methyl-3-((1-methylethyl)sulfonamido)pyrrolidine-1-carboxylate], for which the Emax came to 100%.
Still for that read-out and setting: next, `CC(C)OC(=O)N1[C@H](C)C[C@H](NS(=O)(=O)N(C)C)[C@@H]1COC1CCC2(c3ncccn3)CC2C1` (stereo partly drawn) [Example 174, isopropyl (2R,3S,5R)-3-((N,N-dimethylsulfamoyl)amino)-5-methyl-2-(((6-(pyrimidin-2-yl)bicyclo[4.1.0]heptan-3-yl)oxy)methyl)pyrrolidine-1-carboxylate]: 95.4%; `CCC(OC(=O)N1[C@H](C)C[C@H](NS(C)(=O)=O)[C@@H]1CO[C@H]1CC[C@@]2(c3ncc(F)cn3)C[C@H]2C1)C(F)F` (stereo partly drawn) [Example 50, 1,1-difluorobutan-2-yl (2R,3S,5R)-2-((((1S,3S,6R)-6-(5-fluoropyrimidin-2-yl)bicyclo[4.1.0]heptan-3-yl)oxy)methyl)-5-methyl-3-(methylsulfonamido)pyrrolidine-1-carboxylate]: 104%; `COC(=O)N1[C@H](C)C[C@H](NS(=O)(=O)C(F)F)[C@@H]1CO[C@H]1CC[C@@]2(c3ncc(F)cn3)C[C@H]2C1` [Example 48, methyl (2R,3S,5R)-3-((difluoromethyl)sulfonamido)-2-((((1S,3S,6R)-6-(5-fluoropyrimidin-2-yl)bicyclo[4.1.0]heptan-3-yl)oxy)methyl)-5-methylpyrrolidine-1-carboxylate]: 101%.
On the same count and under the same terms, next, `COC[C@@H]1C[C@H](NS(C)(=O)=O)[C@H](CO[C@H]2CC[C@@]3(c4ncc(F)cn4)C[C@H]3C2)N1C(=O)OC` [Example 132, methyl (2R,3S,5S)-2-((((1S,3S,6R)-6-(5-fluoropyrimidin-2-yl)bicyclo[4.1.0]heptan-3-yl)oxy)methyl)-5-(methoxymethyl)-3-(methylsulfonamido)pyrrolidine-1-carboxylate]: 103%; `C[C@@H]1C[C@H](NS(C)(=O)=O)[C@H](CO[C@H]2CC[C@@]3(c4ncc(F)cn4)C[C@H]3C2)N1C(=O)OCCF` [Example 62, 2-Fluoroethyl (2R,3S,5R)-2-((((1S,3S,6R)-6-(5-fluoropyrimidin-2-yl)bicyclo[4.1.0]heptan-3-yl)oxy)methyl)-5-methyl-3-(methylsulfonamido)pyrrolidine-1-carboxylate]: 100%.
Regarding `CC(C)OC(=O)N1[C@H](C)C[C@H](NS(=O)(=O)CF)[C@@H]1CO[C@@H]1CC[C@]2(c3ncc(F)cn3)C[C@@H]2C1` (single isomer, unassigned) [Example 99], the IC50 came out at 2.5 nM and the Emax was 103%.
On to `CC(C)OC(=O)N1CCC[C@H](NS(=O)(=O)C(F)(F)F)[C@@H]1COC1CC[C@@]2(c3ncc(F)cn3)CC2C1` (stereo partly drawn) [Example 123, isopropyl (2R,3S)-2-(((6-(5-fluoropyrimidin-2-yl)bicyclo[4.1.0]heptan-3-yl)oxy)methyl)-3-((trifluoromethyl)sulfonamido)piperidine-1-carboxylate], for which the Emax is 102%.
On to `COC(=O)N1[C@H](C)C[C@H](NS(=O)(=O)CF)[C@@H]1COC1CCC2(c3ncc(Cl)cn3)CC2C1` (stereo partly drawn) [Example 94, methyl (2R,3S,5R)-2-(((6-(5-chloropyrimidin-2-yl)bicyclo[4.1.0]heptan-3-yl)oxy)methyl)-3-((fluoromethyl)sulfonamido)-5-methylpyrrolidine-1-carboxylate], for which the Emax came to 102%.
As for `CC(C)OC(=O)N1[C@H](C)C[C@H](NS(=O)(=O)N(C)C)[C@@H]1COC1CCC2(c3ncccn3)CC2C1` (stereo partly drawn) [Example 8, isopropyl (2R,3S,5R)-3-((N,N-dimethylsulfamoyl)amino)-5-methyl-2-(((6-(pyrimidin-2-yl)bicyclo[4.1.0]heptan-3-yl)oxy)methyl)pyrrolidine-1-carboxylate], the “Emax (%)” value was found to be 95.4%.
On the same count and under the same terms, the result for `COC(=O)N1CC[C@H](NS(C)(=O)=O)[C@@H]1CO[C@@H]1CC[C@]2(c3ncccn3)C[C@@H]2C1` (single isomer, unassigned) [Example 25] reads 94.7%; that for `COC(=O)N1[C@H](C)C[C@H](NS(C)(=O)=O)[C@@H]1CO[C@@H]1CC[C@]2(c3ncccn3)C[C@@H]2C1` (single isomer, unassigned) [Example 20], 99.7%.
Consider `COC(=O)N1[C@H](C)C[C@H](NS(=O)(=O)N(C)C)[C@@H]1COC1CCC2(c3ccc(C#N)cc3)CC2C1` (stereo partly drawn) [Example 5, methyl (2R,3S,5R)-2-(((6-(4-cyanophenyl)bicyclo[4.1.0]heptan-3-yl)oxy)methyl)-3-((N,N-dimethylsulfamoyl)amino)-5-methylpyrrolidine-1-carboxylate], for which the Emax is 99.8%.
Still for that read-out and setting: the result for `COC(=O)N1[C@H](C)C[C@H](NS(C)(=O)=O)[C@@H]1COC1CCC2(c3ncc(Cl)c(C(F)(F)F)n3)CC2C1` (stereo partly drawn) [Example 72, methyl (2R,3S,5R)-2-(((6-(5-chloro-4-(trifluoromethyl)pyrimidin-2-yl)bicyclo[4.1.0]heptan-3-yl)oxy)methyl)-5-methyl-3-(methylsulfonamido)pyrrolidine-1-carboxylate] reads 91.7%.
With `COC(=O)N1[C@H](C)C[C@H](NS(=O)(=O)CF)[C@@H]1CO[C@H]1CC[C@@]2(c3ncc(F)c(OC)n3)C[C@H]2C1` [Example 83, methyl (2R,3S,5R)-2-((((1S,3S,6R)-6-(5-fluoro-4-methoxypyrimidin-2-yl)bicyclo[4.1.0]heptan-3-yl)oxy)methyl)-3-((fluoromethyl)sulfonamido)-5-methylpyrrolidine-1-carboxylate], the IC50 is 7.6 nM and the Emax is 100%.
